Measurements published in US7629154B2, “Deinococcus N-acylamino acid racemase and use of preparing L-amino acid” (National Chunghsing University, priority 2005, dated 2009).
Like-named read-outs stand apart in the source and are kept apart here.

Experiments:
[1] = target: T1, N-acylamino acid racemase (NAAAR) (Deinococcus radiodurans, UniProt Q9RYA6, A252S/A94S/G148D/K158R/P315S); format: biochemical, Deinococcus radiodurans NCHU1003
[2] = tested on: L-N-carbamoylase/N-acylamino acid racemase; test: Conversion of NCa-D-HPA with enzymes L-N-carbamoylase/N-acylamino acid racemase; format: biochemical; conditions: start 10 mM N-carbamoyl-D-HPA, 50° C., pH 8.0
Source text: NCAU (5′-[…]-3′, SEQ ID NO: 5), containing BamHI restriction site; and NCAD (5′-[…]-3′, SEQ ID NO:6), containing HindIII restriction site. The nucleotide sequences encoding the NAAAR and L-N-carbamoylase were amplified from Deinococcus radiodurans NCHU1003 and Bacillus kaustophilus CCRC11223 chromosome, respectively, by PCR technology. The PCR products contained T5 promoter, lac operator and 6×his-tag sequence at the 5′-end and A transcriptional terminator at the 3′-end. The PCR products were cloned in the pQE30 expression vector. The resultant plasmid, pQEarlnca, was transformed into E. coli JM109 for inductive expression.
The reaction mixture containing 10 mM substrate N-carbamoyl-D-HPA, 0.5 mM CoCl2, 50 mM Tris-HCl buffer (pH 8.0), and the enzymes NAAAR and L-N-carbamoylase isolated from induced transformant was incubated at 50° C. for carrying out the conversion. After analysed by the Chiral-HPLC method, it is shown that the co-expressed enzymes could completely convert the original substrate to the final product L-amino acid in 2 to 3 h in one single reaction.

[3] = target: T1, N-acylamino acid racemase (NAAAR); test: Substrate selectivity / enzymetic activity of NAAAR by Chiral-HPLC; format: biochemical, Deinococcus radiodurans NCHU1003; conditions: for Specific activity: 10 mM substrate, 0.5 mM CoCl2, 50 mM Tris-HCl pH 8.0, 50° C., 30 min; for Relative activity: percentage of the enzyme activity using N-acetyl-D-Met as substrate
Experimental: The enzymetic activity was determined by measuring the production profile of conversion product at 215 nm via HPLC method as described by Tokuyama et al (1994). The reaction buffer containing 10 mM substrate, 0.5 mM CoCl2 and appropriate amount of the enzyme in 50 mM Tris-HCl buffer (pH 8.0) was incubated at 50° C. for 30 min, and the reaction was terminated by placing in boiling water for 5 min. The enzymetic activity was then measured by a Chiral-HPLC method. The Km values (mM) were determined from the original velocity data and the changes in NAc-D-HPA or NAc-D-HPA concentration. The unit NAAAR activity was defined as the enzyme amount required for catalysing 1 μmole of product formation under used condition. As described in the following Table 1, the specific activity of NAAAR for substrate N-carbamoyl-D-HPA was 1.31 U/mg, see Table 1.

[4] = compound at 2 mM, percentage of activity with CoCl2, substrate 10 mM N-carbamoyl-D-HPA, 50° C., 30 min

T1 sequence (Q9RYA6 whole entry A94S/G148D/K158R/A252S/P315S): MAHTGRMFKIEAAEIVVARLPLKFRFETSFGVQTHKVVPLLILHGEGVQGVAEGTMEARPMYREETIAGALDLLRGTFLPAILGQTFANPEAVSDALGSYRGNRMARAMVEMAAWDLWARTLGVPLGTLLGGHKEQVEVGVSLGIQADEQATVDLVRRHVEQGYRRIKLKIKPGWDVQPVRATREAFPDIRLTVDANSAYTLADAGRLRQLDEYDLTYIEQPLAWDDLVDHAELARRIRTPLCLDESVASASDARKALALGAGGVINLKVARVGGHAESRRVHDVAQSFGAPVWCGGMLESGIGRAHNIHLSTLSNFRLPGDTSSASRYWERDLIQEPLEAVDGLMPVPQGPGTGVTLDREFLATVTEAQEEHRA

SMILES | Specific activity [3] [U/mg] | Relative activity [3] [%] | also measured
[Ca+2].[Cl-].[Cl-] [CaCl2] |  |  | Relative activity [1, 4]: 0%
[Cl-].[Cl-].[Co+2] [CoCl2] |  |  | Effect of bivalent metal ion on NAAAR enzymetic activity [1]: improved enzymetic activity; Relative activity [1]: 100%
[Cl][Cu][Cl] [CuCl2] |  |  | Relative activity [1, 4]: 0%
O=C(O)CN(CCN(CC(=O)O)CC(=O)O)CC(=O)O [EDTA] |  |  | Relative activity ([1]; compound at 10 mM, percentage of activity with CoCl2, substrate 10 mM N-carbamoyl-D-HPA, 50° C., 30 min): 0%
N[C@@H](CCc1ccccc1)C(=O)O [L-HPA, L-homophenylalanine] |  |  | Concentration in conversion reaction ([2]; time 0.5 hour): 4.96 mM; Concentration in conversion reaction ([2]; time 1.0 hour): 8.84 mM; Concentration in conversion reaction ([2]; time 2.0 hour): 10 mM
[Cl-].[Cl-].[Mg+2] [MgCl2] |  |  | Relative activity [1, 4]: 20.5%
[Cl][Mn][Cl] [MnCl2] |  |  | Relative activity [1, 4]: 79.1%; Effect of bivalent metal ion on NAAAR enzymetic activity ([1]; in words): improved enzymetic activity
CC(=O)N[C@H](CCc1ccccc1)C(=O)O [N-acetyl-D-HPA] | 9.17 | 143.28 | 
CSCC[C@@H](NC(C)=O)C(=O)O [N-acetyl-D-Met] | 6.40 | 100 | 
CC(=O)N[C@H](Cc1ccccc1)C(=O)O [N-acetyl-D-Phe] | 1.98 | 30.94 | 
CC(=O)N[C@@H](CCC(N)=O)C(=O)O [N-acetyl-L-Gln] | 0.93 | 14.53 | 
CC(=O)N[C@@H](CCc1ccccc1)C(=O)O [N-acetyl-L-HPA] | 11.97 | 187.03 | 
CC(=O)N[C@@H](CC(C)C)C(=O)O [N-acetyl-L-Leu] | 0.45 | 7.03 | 
CSCC[C@H](NC(C)=O)C(=O)O [N-acetyl-L-Met] | 8.04 | 125.63 | 
CC(=O)N[C@@H](Cc1ccccc1)C(=O)O [N-acetyl-L-Phe] | 1.55 | 24.22 | 
CC(=O)N[C@@H](Cc1c[nH]c2ccccc12)C(=O)O [N-acetyl-L-Trp] | 0.87 | 13.13 | 
[2H]NC(=O)N[C@@H](CCc1ccccc1)C(=O)O [N-carbamoyl-D-HPA] | 1.31 | 20.46 | Concentration in conversion reaction ([2]; time 0.5 hour): 4.16 mM; Concentration in conversion reaction ([2]; time 1.0 hour): 1.16 mM; Concentration in conversion reaction ([2]; time 2.0 hour): 0 mM
NC(=O)N[C@@H](CCc1ccccc1)C(=O)O [N-carbamoyl-L-HPA] | 1.91 | 29.84 | Concentration in conversion reaction ([2]; time 0.5 hour): 0.88 mM; Concentration in conversion reaction ([2]; time 1.0 hour): 0 mM; Concentration in conversion reaction ([2]; time 2.0 hour): 0 mM
O=C(CCl)N[C@@H](Cc1ccccc1)C(=O)O [N-chloroacetyl-L-Phe] | 1.16 | 18.13 | 
[Cl][Ni][Cl] [NiCl2] |  |  | Relative activity [1, 4]: 40.6%; Effect of bivalent metal ion on NAAAR enzymetic activity ([1]; in words): improved enzymetic activity
[Cl-].[Cl-].[Zn+2] [ZnCl2] |  |  | Relative activity [1, 4]: 19.7%
